In article PMC7559897, “Designed Antimicrobial Peptides Against Trauma-Related Cutaneous Invasive Fungal Wound Infections” (Journal of Fungi, 2020):
Bridge positions count the residues as written; N and C are the ends. Peptide text beside a SMILES is read from it.

How the values were obtained:
MRSA 6313 = type: cell-based, Staphylococcus aureus; details: cation adjusted Mueller-Hinton broth, ~10^6 CFU/mL, 24 h, 37 °C, OD600 <0.1 in at least 3 of 4 wells, 2-128 μg/mL; shaded values previously reported ref 18
Outline: (§1)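 Twofold broth microdilution of dAMPs (0–128 μg/mL) in quadruplicate; bacteria in 2X cation-adjusted Mueller–Hinton broth at ~10^6 CFU/mL, fungus in potato dextrose broth. Plates kept 24 h at 37 °C; MIC taken from OD600 <0.1 in ≥3 of 4 wells.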

S. aureus 6061 = type: cell-based, Staphylococcus aureus; details: cation adjusted Mueller-Hinton broth, ~10^6 CFU/mL, 24 h, 37 °C, OD600 <0.1 in at least 3 of 4 wells, 2-128 μg/mL; shaded values previously reported ref 18
Outline: as §1

S. aureus B-767 = type: cell-based, Staphylococcus aureus; details: cation adjusted Mueller-Hinton broth, ~10^6 CFU/mL, 24 h, 37 °C, OD600 <0.1 in at least 3 of 4 wells, 2-128 μg/mL; shaded values previously reported ref 18
Outline: as §1

MRSA ATCC 33592 = type: cell-based, Staphylococcus aureus; details: cation adjusted Mueller-Hinton broth, ~10^6 CFU/mL, 24 h, 37 °C, OD600 <0.1 in at least 3 of 4 wells, 2-128 μg/mL; shaded values previously reported ref 18
Outline: as §1

MRSA 6381 = type: cell-based, Staphylococcus aureus; details: cation adjusted Mueller-Hinton broth, ~10^6 CFU/mL, 24 h, 37 °C, OD600 <0.1 in at least 3 of 4 wells, 2-128 μg/mL; shaded values previously reported ref 18
Outline: as §1

[1] = tested on: S. aureus 49525 (Xen36 luciferase); type: cell-based, Staphylococcus aureus; details: 8 μg/mL, 60 min incubation, bioluminescence, triplicates from two independent experiments
From the text: (§2) Fungal and bacterial strains were obtained from American Type Culture Collection (ATCC, Manassas, VA, USA) or the clinical isolate collection at Trideum Biosciences (Frederick, MD, USA) and are presented in Table 1 and Table 2, respectively. Bioluminescence strains of P. aeruginosa 19660, transfected with the Xen5 luciferase gene, and S. aureus ATCC R 49525TM (Wright), transfected with the Xen36 luciferase gene, were obtained from Perkin Elmer (Waltham, MA, USA).
(§3) Real-time killing of bacterial cells, P. aeruginosa or S. aureus, and mammalian cytotoxicity to assess dAMP off-target toxicity was evaluated using bioluminescent cells. The L929 fibroblast cells (ATCC, Manassas, VA, USA) were made bioluminescent by transfection with a luciferase gene. Cells (1 × 10^4 cells, 100 μL) were plated in 96-well black-walled plates and the candidate dAMPs were 2-fold serially diluted from specified concentrations in growth medium supplemented with 150 μg/mL D-luciferin. Each concentration was performed in triplicate, with the final volume being 200 μL. Imaging was performed at select times after the addition of the dAMP, and compared to concurrently run vehicle-control, using an IVIS Lumina imaging system (Caliper Life Sciences, Inc., Hopkinton, MA, USA). For imaging, the 96-well plate was positioned on the stage (12.5-cm field of view), with an open emission filter, binning of 4, and f-stop 1 and a 1-min exposure time. Monitoring bioluminescence allows assessment of the kinetics of cellular viability as there is a tight correlation between the bioluminescent signal and cell viability. Data analysis was performed using the Living Image software program (version 4.3, Caliper Life Sciences, Inc., Hopkinton, MA, USA).
(§4) Figure 3 RP553, RP556, RP557 rapidly destroy P. aeruginosa and S. aureus. The bioluminescence of viable P. aeruginosa 19,660 and S. aureus 49,525 cells was quantitated in real time with an IVIS Lumina bioimaging system. Data represent the mean ± SE of triplicate replicates from two independent experiments. For some points, the error bars are shorter than the height of the symbols.

P. aeruginosa 6186 = type: cell-based, Pseudomonas aeruginosa; details: cation adjusted Mueller-Hinton broth, ~10^6 CFU/mL, 24 h, 37 °C, OD600 <0.1 in at least 3 of 4 wells, 2-128 μg/mL; shaded values previously reported ref 18
Outline: as §1

P. aeruginosa ATCC 19660 = type: cell-based, Pseudomonas aeruginosa; details: cation adjusted Mueller-Hinton broth, ~10^6 CFU/mL, 24 h, 37 °C, OD600 <0.1 in at least 3 of 4 wells, 2-128 μg/mL; shaded values previously reported ref 18
Outline: as §1

P. aeruginosa ATCC 27853 = type: cell-based, Pseudomonas aeruginosa; details: cation adjusted Mueller-Hinton broth, ~10^6 CFU/mL, 24 h, 37 °C, OD600 <0.1 in at least 3 of 4 wells, 2-128 μg/mL; shaded values previously reported ref 18
Outline: as §1

A. baumannii 6838 = type: cell-based, Acinetobacter baumannii; details: cation adjusted Mueller-Hinton broth, ~10^6 CFU/mL, 24 h, 37 °C, OD600 <0.1 in at least 3 of 4 wells, 2-128 μg/mL; shaded values previously reported ref 18
Outline: as §1

A. baumannii 6043 = type: cell-based, Acinetobacter baumannii; details: cation adjusted Mueller-Hinton broth, ~10^6 CFU/mL, 24 h, 37 °C, OD600 <0.1 in at least 3 of 4 wells, 2-128 μg/mL; shaded values previously reported ref 18
Outline: as §1

A. baumannii ATCC 17978 = type: cell-based, Acinetobacter baumannii; details: cation adjusted Mueller-Hinton broth, ~10^6 CFU/mL, 24 h, 37 °C, OD600 <0.1 in at least 3 of 4 wells, 2-128 μg/mL; shaded values previously reported ref 18
Outline: as §1

K. pneumonia 6069 = type: cell-based, Klebsiella pneumoniae; details: cation adjusted Mueller-Hinton broth, ~10^6 CFU/mL, 24 h, 37 °C, OD600 <0.1 in at least 3 of 4 wells, 2-128 μg/mL; shaded values previously reported ref 18
Outline: as §1

K. pneumonia ATCC 10031 = type: cell-based, Klebsiella pneumoniae; details: cation adjusted Mueller-Hinton broth, ~10^6 CFU/mL, 24 h, 37 °C, OD600 <0.1 in at least 3 of 4 wells, 2-128 μg/mL; shaded values previously reported ref 18
Outline: as §1

[2] = tested on: P. aeruginosa 19660 (Xen5 luciferase); assay: Bioluminescent time-kill assay; type: cell-based, Pseudomonas aeruginosa; details: 8 μg/mL; RP553 at 60 min; bioluminescence
From the text: as §2, §3, §4

L929 fibroblast cells = assay: Bioluminescent mammalian cytotoxicity assay; type: cell-based, murine; details: L929 fibroblasts, up to 64 μg/mL, 8 h of exposure, bioluminescence
Protocol: as §3, with “Data analysis was performed using the Living Image software program (version 4.3, Caliper Life Sciences, Inc., Hopkinton, MA, USA).” left out
Figure 2 RP504, RP556 and RP557 induce limited mammalian cell toxicity. […] Cells were plated at 1×10^4 cells/well, allowed to adhere overnight and the specific dAMP added, and cytotoxicity evaluated through 8 h. […]

E. cloacae 6054 = type: cell-based; details: cation adjusted Mueller-Hinton broth, ~10^6 CFU/mL, 24 h, 37 °C, OD600 <0.1 in at least 3 of 4 wells, 2-128 μg/mL; shaded values previously reported ref 18
Outline: as §1

[3] = tested on: Aspergillus flavus MYA-1004; type: cell-based; details: potato dextrose broth, 24 h, 37 °C, OD600 <0.1 in at least 3 of 4 wells, dose range 2 to 128 µg/mL; shaded values previously reported ref 17
Outline: as §1

Candida albicans Y-6359 = type: cell-based; details: potato dextrose broth, 24 h, 37 °C, OD600 <0.1 in at least 3 of 4 wells, dose range 2 to 128 µg/mL; shaded values previously reported ref 17
Outline: as §1

E. cloacae 6053 = type: cell-based; details: cation adjusted Mueller-Hinton broth, ~10^6 CFU/mL, 24 h, 37 °C, OD600 <0.1 in at least 3 of 4 wells, 2-128 μg/mL; shaded values previously reported ref 18
Outline: as §1

[4] = tested on: Candida parapsilosis Y-1763; type: cell-based; details: potato dextrose broth, 24 h, 37 °C, OD600 <0.1 in at least 3 of 4 wells, dose range 2 to 128 µg/mL; shaded values previously reported ref 17
Outline: as §1

Candida krusei Y-27825 = type: cell-based; details: potato dextrose broth, 24 h, 37 °C, OD600 <0.1 in at least 3 of 4 wells, dose range 2 to 128 µg/mL; shaded values previously reported ref 17
Outline: as §1

[5] = tested on: Candida parapsilosis Y-1761; type: cell-based; details: potato dextrose broth, 24 h, 37 °C, OD600 <0.1 in at least 3 of 4 wells, dose range 2 to 128 µg/mL; shaded values previously reported ref 17
Outline: as §1

[6] = tested on: Aspergillus fumigatus 9651; type: cell-based; details: potato dextrose broth, 24 h, 37 °C, OD600 <0.1 in at least 3 of 4 wells, dose range 2 to 128 µg/mL; shaded values previously reported ref 17
Outline: as §1

S. epidermis ATCC 51625 = type: cell-based; details: cation adjusted Mueller-Hinton broth, ~10^6 CFU/mL, 24 h, 37 °C, OD600 <0.1 in at least 3 of 4 wells, 2-128 μg/mL; shaded values previously reported ref 18
Outline: as §1

[7] = tested on: Aspergillus fumigatus 9648; type: cell-based; details: potato dextrose broth, 24 h, 37 °C, OD600 <0.1 in at least 3 of 4 wells, dose range 2 to 128 µg/mL; shaded values previously reported ref 17
Outline: as §1

Candida krusei Y-27803 = type: cell-based; details: potato dextrose broth, 24 h, 37 °C, OD600 <0.1 in at least 3 of 4 wells, dose range 2 to 128 µg/mL; shaded values previously reported ref 17
Outline: as §1

Candida albicans Y-326 = type: cell-based; details: potato dextrose broth, 24 h, 37 °C, OD600 <0.1 in at least 3 of 4 wells, dose range 2 to 128 µg/mL; shaded values previously reported ref 17
Outline: as §1

[8] = tested on: Aspergillus flavus MYA-3651; type: cell-based; details: potato dextrose broth, 24 h, 37 °C, OD600 <0.1 in at least 3 of 4 wells, dose range 2 to 128 µg/mL; shaded values previously reported ref 17
Outline: as §1

[9] = tested on: Mucor circinelloides NRRL 3631; type: cell-based; details: potato dextrose broth, 24 h, 37 °C, OD600 <0.1 in at least 3 of 4 wells, dose range 2 to 128 µg/mL; shaded values previously reported ref 17
Outline: as §1

[10] = tested on: Fusarium solani NRRL 28548; type: cell-based; details: potato dextrose broth, 24 h, 37 °C, OD600 <0.1 in at least 3 of 4 wells, dose range 2 to 128 µg/mL; shaded values previously reported ref 17
Outline: as §1

[11] = tested on: Absidia corymbifera NRRL 6251; type: cell-based; details: potato dextrose broth, 24 h, 37 °C, OD600 <0.1 in at least 3 of 4 wells, dose range 2 to 128 µg/mL; shaded values previously reported ref 17
Outline: as §1

P. aeruginosa = details: subinhibitory concentrations, growth at higher concentrations; cited from earlier work
From the text: (§5) The rapid destruction of pathogenic cells by dAMPs infers a theoretical reduced likelihood of developing bacterial resistance. However, to confirm this, dAMPs were serially passaged against Candida and against both P. aeruginosa and S. aureus at subinhibitory concentrations to ascertain whether resistance, assessed by growth at higher concentrations, occurs. Resistance was not observed.

S. aureus = details: subinhibitory concentrations, growth at higher concentrations; cited from earlier work
From the text: as §5

CC[C@H](C)[C@@H]1NC(=O)CNC(=O)[C@H](CCCCN)NC(=O)[C@H](Cc2ccc(O)cc2)NC(=O)[C@@H]2CSSC[C@H](NC1=O)C(=O)N[C@@H](Cc1ccc(O)cc1)C(=O)N[C@@H](CCCCN)C(=O)N[C@@H](CCCCN)C(=O)N[C@H](C(=O)N[C@@H](CCCCN)C(N)=O)CSSC[C@H](NC(=O)[C@H](Cc1c[nH]c3ccccc13)NC(=O)[C@@H](N)CCCNC(=N)N)C(=O)N[C@@H](Cc1ccccc1)C(=O)N[C@@H](CCCCN)C(=O)N[C@@H](C(C)C)C(=O)N2 [RP556] (H-RWCFKVCYKGICYKKCK-NH2; disulfide 3-16, 7-12)
4 µg/mL: MIC against MRSA ATCC 33592 (MRSA ATCC 33592) | MIC against MRSA 6381 (MRSA 6381) | MIC against P. aeruginosa 6186 (P. aeruginosa 6186) | MIC against S. epidermis ATCC 51625 (S. epidermis ATCC 51625)
16 µg/mL: MIC against S. aureus 6061 (S. aureus 6061) | MIC against Candida krusei Y-27803 (Candida krusei Y-27803) | MIC against Candida albicans Y-326 (Candida albicans Y-326)
2 µg/mL: MIC against Candida parapsilosis Y-1763 [4] | MIC against Fusarium solani NRRL 28548 [10] | MIC against Absidia corymbifera NRRL 6251 [11]
Limited toxicity: mammalian cell toxicity (in words) (L929 fibroblast cells)
45%: S. aureus killing [1]
immediate eradication: P. aeruginosa killing (in words) [2]
8 µg/mL: MIC against MRSA 6313 (MRSA 6313) | MIC against S. aureus B-767 (S. aureus B-767) | MIC against P. aeruginosa ATCC 19660 (P. aeruginosa ATCC 19660) | MIC against P. aeruginosa ATCC 27853 (P. aeruginosa ATCC 27853) | MIC against A. baumannii 6838 (A. baumannii 6838) | MIC against A. baumannii 6043 (A. baumannii 6043) | MIC against A. baumannii ATCC 17978 (A. baumannii ATCC 17978) | MIC against K. pneumonia 6069 (K. pneumonia 6069) | MIC against K. pneumonia ATCC 10031 (K. pneumonia ATCC 10031) | MIC against E. cloacae 6054 (E. cloacae 6054) | MIC against Candida albicans Y-6359 (Candida albicans Y-6359) | MIC against E. cloacae 6053 (E. cloacae 6053)
32 µg/mL: MIC against Candida krusei Y-27825 (Candida krusei Y-27825) | MIC against Candida parapsilosis Y-1761 [5]
64 µg/mL: MIC against Aspergillus flavus MYA-1004 [3] | MIC against Aspergillus fumigatus 9651 [6] | MIC against Aspergillus fumigatus 9648 [7] | MIC against Aspergillus flavus MYA-3651 [8] | MIC against Mucor circinelloides NRRL 3631 [9]

CNC(C)C1CCC(N)C(OC2C(N)CC(N)C(OC3OCC(C)(O)C(NC)C3O)C2O)O1 (stereo not shown) [Gentamicin]
strong resistance: resistance during serial passaging against P. aeruginosa (P. aeruginosa)

CCC[C@@H]1C[C@@H](C(=O)N[C@@H]([C@H]2O[C@H](SC)[C@H](O)[C@@H](O)[C@H]2O)[C@H](C)Cl)N(C)C1 [clindamycin]
strong resistance: resistance during serial passaging against S. aureus (S. aureus)
